Structures can show the parent of a compound that is named as a salt. Square brackets hold non-standard residues; d marks the D form. Ends that are not written are not given here. Peptide text beside a SMILES is read from it.
Key:
[1] = system: M. avium-infected macrophages; settings: M. avium 2447 SmT-infected BMM; 4 to 120 h; data not shown
in vitro = settings: cell culture medium (supplemented DMEM)
Method: (§1) After 0, 0.5, 2, 4, 8, 24, 48, 72, and 96 h of incubation, a 40-µl aliquot was immediately injected for RP-HPLC analysis using an elution gradient of 0 to 100% acetonitrile in 0.05% aqueous trifluoroacetic acid (TFA) for 30 min at a flow rate of 1 ml/min.
(§2) At the end of 0, 0.5, 2, 4, 8, 24, 48, 72, and 96 h, an aliquot was taken from each mixture and analyzed by high-performance liquid chromatography (HPLC). The HPLC (Hitachi Elite Autosampler L-2200, pump L-2130, diode array detector L-2455, and column oven L-2300) was performed with a 150-mm-diameter C18 reverse-phase column (Merck). Each analysis involved an injection volume of 40 µl and elution with 0 to 100% acetonitrile in 0.05% aqueous trifluoroacetic acid (TFA) at a flow rate of 1 ml/min; the detection wavelength was set to 220 nm. The chromatograms were analyzed with EZChrom Elite software, and the peaks were integrated to extract the area.

M. avium 2447 SmT = assay: Intramacrophagic M. avium growth, CFU assay in BALB/c BMM; type: cell-based, Mycobacterium avium; settings: peptides 40 µM, ethambutol 7.2 µM, each alone, 5 days
Method: Given that the peptides at up to 40 µM were not toxic to macrophages, we evaluated their effect on M. avium growing inside these cells. Bone marrow-derived macrophages were obtained from BALB/c mice and infected with M. avium 2447 smooth transparent variant (SmT). The different peptides were added at 40 µM, and ethambutol was added at 7.2 µM. After 5 days in culture, the number of intracellular bacteria per culture well was quantified in a CFU assay (Fig. 1D).
BMM at day 10 of culture were infected with 10^6 CFU of M. avium 2447 SmT for 4 h at 37°C in a 7% CO2 atmosphere. After incubation, cells were washed several times to remove noninternalized bacteria and reincubated with new medium with or without 40 µM peptide (76.9 µg/ml LFcin17–30 and D-LFcin17–30, 73.6 µg/ml LFcin17–30 all R, 80.3 µg/ml LFcin17–30 all R), alone or in combination with the antibiotic ethambutol (2 µg/ml or 7.2 µM ethambutol dihydrochloride; Sigma-Aldrich, St. Louis, MO, USA). Each condition was tested in triplicate. After 5 days in culture, the intracellular growth of M. avium 2447 SmT was evaluated by determining the number of CFU, as described previously ([75]).

M. avium = settings: broth culture; cited from earlier work
From the text: In contrast, we now verify that only D-LFcin17–30 induces a significant decrease in mycobacterial growth inside macrophages. However, all peptides were effective when combined with the antibiotic ethambutol. The combination of antimicrobial peptides with conventional antibiotics is of great potential interest, as it might reduce the dosages of each ...

[2] = 40 µM peptide in supplemented DMEM cell culture medium, 37°C, up to 96 h; RP-HPLC C18, UV 220 nm, peak area relative to time zero
Method: as §1, §2

Compound | levels of apoptosis or necrosis [1] | activity against M. avium in axenic cultures (M. avium) | other results
CSCC[C@@H](NC(=O)[C@@H](CCCNC(=N)N)NC(=O)[C@@H](Cc1c[nH]c2ccccc12)NC(=O)[C@@H](CCC(N)=O)NC(=O)[C@@H](Cc1c[nH]c2ccccc12)NC(=O)[C@@H](CCCNC(=N)N)NC(=O)[C@@H](CCCNC(=N)N)NC(=O)[C@@H](CS)NC(=O)[C@@H](CCCCN)NC(=O)[C@H](N)Cc1ccccc1)C(=O)N[C@H](CCCCN)C(=O)N[C@H](CCCCN)C(=O)N[C@H](CC(C)C)C(=O)NCC(=O)O [D-LFcin17–30] (H-[dF][dK][dC][dR][dR][dW][dQ][dW][dR][dM][dK][dK][dL]G-OH) | no significant changes | – | metabolised at 96 h, 40 µM (in vitro): ≤ 30%
CC[C@@H](CO)NCCN[C@@H](CC)CO [ethambutol, ethambutol dihydrochloride] | – | – | inhibition of intramacrophagic M. avium growth, compound alone (M. avium 2447 SmT): None of the other peptides or ethambutol alone significantly inhibited M. avium growth
FKCKKWQWKMKKLG [LFcin17–30 all K, LFcin17–30 variant with all arginines replaced with lysines] | – | all active | –
FKCRRWQWRMKKLG [LFcin17–30] | no significant changes | – | metabolised at 24 h, 40 µM (in vitro): 50%; degradation of peptide after 96 h of incubation [2]: completely degraded
FRCRRWQWRMRRLG [LFcin17–30 all R, LFcin17–30 variant with all lysines replaced with arginines] | – | all active | –
